Experimental data published in US11234960B2, “Compositions and methods for improving mitochondrial function and treating neurodegenerative diseases and cognitive disorders” (Amazentis SA, priority 2010, dated 2022).

Test system: maternally separated mice
Test: Dark/light box test in early-life stress (maternal separation) mice
Format: in vivo
Details: 90 mg/kg/day in food (FIG. 39)
Protocol: At postnatal day 1, pups were culled to have 6 pups per mother. From postnatal day 1 to 14, unpredictable maternal separation (MS) of a period of 3 hours daily was carried out. Maternal separation was performed at random times (from 8 am to 2 pm) to avoid the habituation of the mother to the procedure. The protocol consisted of removing pups from their mother to another cage at room temperature for a 3 hour period, after which the pups were returned to their original nest. These groups are denoted as early-life stress in the figures. A control group of dam/pups was left undisturbed and is denoted in the figures as normal.
One week after maternal separation mice were separated into two groups. One control group received the standard mouse chow diet (Untreated), while the other group received the ellagitannin punicalagin admixed into the food and designed to deliver a dose of 90 mg/kg/day to the mice. Treatment with the diet began 1 week after the termination of the maternal separation treatment.
The effects of early-life stress on depression, anxiety and cognition were examined utilizing the following behavioral assays which were carried out 166 days after the completion of the maternal separation protocol. Normally raised mice were compared versus maternally separated mice (early-life stress) and maternally separated mice treated with punicalagin. […]

SMILES: O=C1O[C@H]2[C@@H]3OC(=O)c4cc(O)c(O)c(O)c4-c4c(O)c(O)c5oc(=O)c6c(c(O)c(O)c7oc(=O)c4c5c76)-c4c(cc(O)c(O)c4O)C(=O)OC[C@H]3OC(O)[C@@H]2OC(=O)c2cc(O)c(O)c(O)c2-c2c1cc(O)c(O)c2O (mixture of isomers) [punicalagin, 2,3 hexahydroxydiphenoyl-4,6-gallagylglucose]
- time spent in lit area (risk-taking behavior): reversed and normalized the excessive risk-taking behavior
